From patent US10351500B2, “Method of using of dihydro-resveratrol or its stilbenoid derivatives and/or chemical variants as antimicrobial agents” (Hong Kong Baptist University, priority 2015, dated 2019)

Assays:
[1] = test system: HCT-116 human colorectal carcinoma xenograft tumor; test: HCT-116 nude mouse xenograft model; type: in vivo, BALB/c nude mice; conditions: for Body weight: tumor-bearing nude mice, D-res 100 mg/kg i.p.
Text: All animal studies were approved and performed according to Animal Care and Use Guidelines of the Animal Ethics Committee at Hong Kong Baptist University. BALB/c nude mice, SPF class, male, 6-8 weeks old, were purchased from BioLASCO, Taiwan. Before the xenograft experiment, the mice were acclimatized to SPF class laboratory conditions for a week.
HCT-116 cells in logarithmic growth phase were collected by trypsinization. After centrifugation and rinsing, cells were re-suspended in serum-free DMEM medium at 3×10^7 cells/mL. Nude mice were skin disinfected with 75% medical ethanol, subcutaneously injected with 100 μL of the HCT-116 cell suspension using a 25-G syringe to their left flank. The same procedure was repeated for the tumor cell injection to the right flank.
Seven days after tumor cell injection, 24 mice with tumor volumes of 32 mm^3 to 178 mm^3 were randomly assigned into 3 groups; the average initial tumor volumes in each group of mice were 78.04±7.76 mm^3 (vehicle, 8 mice), 78.76±9.40 mm^3 (5-FU, 8 mice), 78.01±7.75 mm^3 (D-res, 8 mice) respectively.
Vehicle solution: 2.5% Ethanol and Cremphor EL (1:1 v/v) dissolved in physiological saline.
5-FU solution: 5-FU powder was dissolved in 2.5% Ethanol and Cremphor EL to a concentration of 5 mg/mL.
D-res solution: Dihydro-resveratrol powder was dissolved in 2.5% Ethanol and Cremphor EL solution to a concentration of 20 mg/mL.
Vehicle group (n=8): 2.5% Ethanol and Cremphor EL solution was intraperitoneally injected every other day for 21 days.
5-FU group (n=8): 5-FU solution was given to mice at 25 mg/kg by intraperitoneal injection every other day for 21 days.
D-res group (n=8): D-res solution was given to mice at 100 mg/kg by intraperitoneal injection every other day for 21 days. This is equivalent to a dosage of no less than 8.13 mg/kg of bodily weight in human.

[2] = test system: human embryonic kidney HEK293 cell line; test: MTT cell viability assay, HEK293; type: cell-based
Protocol: (§1) The human colorectal carcinoma HCT-116 cell line, human pancreatic ductal adenocarcinoma PANC-1 cell line, human melanoma A375 cell line and human embryonic kidney HEK293 cell line were purchased from the American Type Culture Collection. Cells were cultured in high glucose DMEM growth medium supplemented with 10% fetal bovine serum, penicillin and streptomycin (100 U) in a humidified atmosphere of 5% CO2, 95% air at 37° C. Upon the addition of dihydro-resveratrol (D-res) to the HCT-116, PANC-1, A375 or HEK293 cells seeded at a density of 8000 cells per well in a 96-well plate format, the viability of the testing cells was determined 24 h post treatment using the (3-(4,5-dimethylthiazol-2-yl)-2,5-diphenyltetrazolium bromide) tetrazolium (MTT) reduction assay and expressed as growth inhibition of 50% (GI50, Table 6).

[3] = test system: human pancreatic ductal adenocarcinoma PANC-1 cell line; test: MTT cell viability assay, PANC-1; type: cell-based; conditions: PANC-1 pancreatic ductal adenocarcinoma, 24 h
Protocol: as §1

[4] = test system: A375 human melanoma cells; test: cell migration assay, A375; type: cell-based; conditions: A375, 25 μM, 24-h treatment
[5] = test system: Trichophyton mentagrophytes; test: anti-fungal growth inhibition, T. mentagrophytes; type: cell-based; conditions: Trichophyton mentagrophytes, 168 h
Protocol: Evaluation of anti-fungal activity. In a single well of the 96-well microplate, 10 μL of the testing compound is added into 190 μL of growth medium (Difco™ YM) containing an overnight culture of Trichophyton rubrum or Trichophyton mentagrophytes at a density of approximately 5×10^5 CFU. The testing compounds include dihydro-resveratrol and DR1 to DR11. Wells incubated with 10 μL 0.5% DMSO only (i.e. no testing compound) are served as the experimental control of fungal growth whilst those incubated with growth medium only (i.e. no fungi) are served as the negative control. […] The percentage of growth inhibition of T. mentagrophytes by the different concentrations of testing compounds is shown in Table 10 whilst the percentage of growth inhibition of T. rubrum is shown in Table 11. The images of T. mentagrophytes culture are captured post treatment of dihydro-resveratrol (100 μM) and DR8 (100 μM) when compared to the growth of experimental control and negative control (FIG. 30).

[6] = test system: Streptococcus sobrinus; test: anti-bacterial growth inhibition, S. sobrinus; type: cell-based; conditions: Streptococcus sobrinus, 10 h
Protocol: Evaluation of anti-bacterial activity. In a single well of the 96-well microplate, 10 μL of the testing compound is added into 190 μL of growth medium growth medium (BBL™ Brain Heart Infusion) containing an overnight culture of Streptococcus mutans or Streptococcus sobrinus at a density of approximately 5×10^5 CFU. The testing compounds include dihydro-resveratrol and DR1 to DR11. Wells incubated with 10 μL 0.5% DMSO only (i.e. no testing compound) are served as the experimental control of bacterial growth whilst those incubated with growth medium only (i.e. no bacteria) are served as the negative control. […] The percentage of growth inhibition of S. mutans by the different concentrations of testing compounds is shown in Table 12 whereas the percentage of growth inhibition of S. sobrinus is shown in Table 13. The images of S. mutans culture are captured post treatment of dihydro-resveratrol (100 μM) and DR8 (100 μM) when compared to the growth of experimental control and negative control (FIG. 31).

[7] = 21-day administration, 100 mg/kg i.p.
[8] = read-out: Inhibition rate (25 μM)
[9] = read-out: Inhibition rate (50 μM)
[10] = read-out: Inhibition rate (100 μM)

## Oc1ccc(CCc2cc(O)cc(O)c2)cc1 [Dihydro-resveratrol, trans-3,5,4′-trihydroxybibenzyl]
[1]; [7]
  effect on body weight of the nude mice: did not lead to a notable reduction in body weight
  growth of xenograft tumor (size, volume, weight) compared to 5-FU: more sufficiently restrained
[1]; Day 1 (initial), i.p. every other day, 5-FU 25 mg/kg, D-res 100 mg/kg
  Tumor Volume (mm^3): 78.01 ± 7.75 mm^3
[1]; Day 1, 5-FU 25 mg/kg
  Body weight: 20.69 ± 0.55 g
[1]; Day 4, i.p. every other day, 5-FU 25 mg/kg, D-res 100 mg/kg
  Tumor Volume (mm^3): 137.54 ± 14.69 mm^3
[1]; Day 4, 5-FU 25 mg/kg
  Body weight: 20.76 ± 0.65 g
[1]; Day 7, i.p. every other day, 5-FU 25 mg/kg, D-res 100 mg/kg
  Tumor Volume (mm^3): 167.58 ± 22.65 mm^3
[1]; Day 7, 5-FU 25 mg/kg
  Body weight: 20.33 ± 0.9 g
[1]; Day 10, i.p. every other day, 5-FU 25 mg/kg, D-res 100 mg/kg
  Tumor Volume (mm^3): 273.28 ± 41.5 mm^3
[1]; Day 10, 5-FU 25 mg/kg
  Body weight: 20.57 ± 0.66 g
[1]; Day 13, i.p. every other day, 5-FU 25 mg/kg, D-res 100 mg/kg
  Tumor Volume (mm^3): 355.48 ± 78.57 mm^3
[1]; Day 13, 5-FU 25 mg/kg
  Body weight: 20.53 ± 0.82 g
[1]; Day 16, i.p. every other day, 5-FU 25 mg/kg, D-res 100 mg/kg
  Tumor Volume (mm^3): 409.35 ± 74.3 mm^3
[1]; Day 16, 5-FU 25 mg/kg
  Body weight: 20.31 ± 0.88 g
[1]; Day 19, i.p. every other day, 5-FU 25 mg/kg, D-res 100 mg/kg
  Tumor Volume (mm^3): 585.98 ± 110.96 mm^3
[1]; Day 19, 5-FU 25 mg/kg
  Body weight: 20.51 ± 0.87 g
[1]; Day 21, i.p. every other day, 5-FU 25 mg/kg, D-res 100 mg/kg
  Tumor Volume (mm^3): 559.76 ± 100.63 mm^3
[1]; Day 21, 5-FU 25 mg/kg
  Body weight: 18.79 ± 0.59 g
[1]; Day 22, i.p. every other day, 5-FU 25 mg/kg, D-res 100 mg/kg
  Tumor Volume (mm^3): 586.92 ± 88.51 mm^3
[1]; Day 22, 5-FU 25 mg/kg
  Body weight: 20.63 ± 0.99 g
[1]; treated for 21 days, i.p. every other day, 5-FU 25 mg/kg, D-res 100 mg/kg
  Tumor weight: 0.60 ± 0.11 g
[2]; Homo sapiens, HEK293 embryonic kidney (serves as normal control), 24 h, MTT
  GI50: 244.1 ± 0.96 µM
[2]; Table 6
  selectivity implied by GI50 values (carcinoma cells vs HEK293): selectivity towards carcinoma cells
[3]
  GI50: 116 ± 3.09 µM
[4]
  migratory ability: significant reduction in the migratory ability
[5]; [8]
  inhibition at 25 µM: 4.52%
[5]; [9]
  inhibition at 50 µM: 15.3%
[5]; [10]
  inhibition at 100 µM: 30.8%
[6]; [8]
  inhibition at 25 µM: 10.7%
[6]; [9]
  inhibition at 50 µM: 8.18%
[6]; [10]
  inhibition at 100 µM: 1.49%
